Source: patent US20110230481A2, “DERIVATIVES OF TETRABROMOBENZIMIDAZOLE, A PROCESS FOR THE PREPARATION THEREOF, A PHARMACEUTICAL COMPOSITION COMPRISING THE SAME, A METHOD OF USING THE SAME, A METHOD FOR MODULATING OR REGULATING SERINE/THREONINE KINASES, AND SERINE/THREONINE KINASES MODULATING AGENT” (SELVITA S.A., priority 2009, published 2011)

Columns and labels:
Assay in all cases: KINOMEscan Max
Format in all cases: binding
[1] = molecular target: ABL1(F317I)-phosphorylated (Homo sapiens, UniProt P00519, F317I)
In short: (§1)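 In this platform each kinase carries a DNA tag and is offered an immobilized ligand aimed at the active site; test compound competes for binding, and the amount of kinase held on the ligand is measured by qPCR.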

[2] = molecular target: ABL1(M351T)-phosphorylated (Homo sapiens, UniProt P00519, M351T)
In short: as §1

[3] = molecular target: ABL1(Y253F)-phosphorylated (Homo sapiens, UniProt P00519, Y253F)
In short: as §1

ANKK1 = molecular target: T1, ANKK1 (Homo sapiens, UniProt Q8NFD2)
T1 construct: DNA tag (qPCR label); purchased Ambit Kinomescan (contract screening)
In short: as §1

BMPR1A = molecular target: T2, BMPR1A (Homo sapiens, UniProt P36894)
T2 construct: DNA tag (qPCR label); purchased Ambit Kinomescan (contract screening)
In short: as §1

BRAF = molecular target: T3, BRAF (Homo sapiens, UniProt P15056)
T3 construct: DNA tag (qPCR label); purchased Ambit Kinomescan (contract screening)
In short: as §1

BRSK1 = molecular target: T4, BRSK1 (Homo sapiens, UniProt Q8TDC3)
T4 construct: DNA tag (qPCR label); purchased Ambit Kinomescan (contract screening)
In short: as §1

CDKL2 = molecular target: T5, CDKL2 (Homo sapiens, UniProt Q92772)
T5 construct: purchased Ambit (KINOMEscan Max service)
In short: as §1

DCAMKL3 = molecular target: T6, DCAMKL3 (Homo sapiens, UniProt Q9C098)
T6 construct: purchased Ambit (KINOMEscan Max panel service)
In short: as §1

EPHA4 = molecular target: T7, EPHA4 (Homo sapiens, UniProt P54764)
T7 construct: purchased Ambit (KINOMEscan Max panel service)
In short: as §1

EPHA8 = molecular target: T8, EPHA8 (Homo sapiens, UniProt P29322)
T8 construct: purchased Ambit (KINOMEscan Max service)
In short: as §1

FLT3(D835H) = molecular target: T9, FLT3(D835H) (Homo sapiens, UniProt P36888, D835H)
T9 construct: purchased Ambit (KINOMEscan Max service)
In short: as §1

GRK1 = GRK1 (Homo sapiens, UniProt Q15835)
In short: as §1

HCK = molecular target: T10, HCK (Homo sapiens, UniProt P08631)
T10 construct: purchased Ambit Kinomescan (contract screening)
In short: as §1

IRAK4 = molecular target: T11, IRAK4 (Homo sapiens, UniProt Q9NWZ3); settings: 1 μM
T11 construct: purchased Ambit Kinomescan (contract panel)
In short: as §1

MAP3K3 = molecular target: T12, MAP3K3 (Homo sapiens, UniProt Q99759)
T12 construct: purchased Ambit Kinomescan (contract panel)
In short: as §1

MARK1 = molecular target: T13, MARK1 (Homo sapiens, UniProt Q9P0L2)
T13 construct: purchased Ambit Kinomescan (contract panel)
In short: as §1

PAK1 = molecular target: T14, PAK1 (Homo sapiens, UniProt Q13153)
T14 construct: DNA tag (qPCR read-out)
In short: as §1

PAK4 = molecular target: T15, PAK4 (Homo sapiens, UniProt O96013)
T15 construct: purchased Ambit (KINOMEscan Max service)
In short: as §1

PFPK5(P.falciparum) = molecular target: T16, PFPK5(P.falciparum) (Plasmodium falciparum, UniProt P61075)
T16 construct: DNA tag (qPCR read-out)
In short: as §1

PIK3C2G = molecular target: T17, PIK3C2G (Homo sapiens, UniProt O75747)
T17 construct: DNA tag (qPCR read-out)
In short: as §1

PRKG2 = molecular target: T18, PRKG2 (Homo sapiens, UniProt Q13237)
T18 construct: DNA tag (qPCR read-out); purchased Ambit Kinomescan
In short: as §1

QSK = molecular target: T19, QSK (Homo sapiens, UniProt Q9Y2K2); settings: 1 μM
T19 construct: DNA tag (qPCR read-out)
In short: as §1

RIPK5 = molecular target: T20, RIPK5 (Homo sapiens, UniProt Q6XUX3)
T20 construct: DNA tag (qPCR read-out)
In short: as §1

[4] = molecular target: T21, RSK1(Kin.Dom.2-C-terminal) (Homo sapiens, UniProt Q15418)
T21 construct: RSK1(Kin.Dom.2-C-terminal); purchased Ambit Kinomescan (contract screening)
In short: as §1

SBK1 = molecular target: T22, SBK1 (Homo sapiens, UniProt Q52WX2)
T22 construct: purchased Ambit (KINOMEscan Max service)
In short: as §1

SRPK2 = molecular target: T23, SRPK2 (Homo sapiens, UniProt P78362)
T23 construct: DNA tag (qPCR read-out)
In short: as §1

STK33 = STK33 (Homo sapiens, UniProt Q9BYT3)
In short: as §1

TBK1 = TBK1 (Homo sapiens, UniProt Q9UHD2)
In short: as §1

TIE2 = TIE2 (Homo sapiens, UniProt Q02763)
In short: as §1

TLK1 = molecular target: T24, TLK1 (Homo sapiens, UniProt Q9UKI8)
T24 construct: DNA tag (qPCR read-out)
In short: as §1

TNK2 = molecular target: T25, TNK2 (Homo sapiens, UniProt Q07912)
T25 construct: purchased Ambit Kinomescan (contract screening service)
In short: as §1

TTK = molecular target: T26, TTK (Homo sapiens, UniProt P33981)
T26 construct: purchased Ambit Kinomescan (contract screening service)
In short: as §1

ZAK = ZAK (Homo sapiens, UniProt Q9NYL2)
In short: as §1

T15 sequence (O96013 whole entry): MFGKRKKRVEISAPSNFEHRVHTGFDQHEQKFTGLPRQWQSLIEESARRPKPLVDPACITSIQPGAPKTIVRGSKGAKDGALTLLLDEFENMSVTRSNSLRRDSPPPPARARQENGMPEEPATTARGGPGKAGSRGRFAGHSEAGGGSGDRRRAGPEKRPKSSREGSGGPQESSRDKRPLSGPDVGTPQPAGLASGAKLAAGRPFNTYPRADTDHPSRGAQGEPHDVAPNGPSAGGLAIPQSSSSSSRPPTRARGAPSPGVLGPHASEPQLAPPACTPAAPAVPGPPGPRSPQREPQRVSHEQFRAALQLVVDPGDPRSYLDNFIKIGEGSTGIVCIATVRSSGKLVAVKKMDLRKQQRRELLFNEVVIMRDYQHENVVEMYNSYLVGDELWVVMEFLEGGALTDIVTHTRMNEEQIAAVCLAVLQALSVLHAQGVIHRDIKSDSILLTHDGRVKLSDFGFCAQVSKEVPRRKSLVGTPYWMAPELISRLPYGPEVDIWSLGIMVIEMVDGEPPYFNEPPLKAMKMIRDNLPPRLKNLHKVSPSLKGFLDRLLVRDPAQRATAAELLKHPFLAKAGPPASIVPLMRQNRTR
T12 sequence (Q99759 whole entry): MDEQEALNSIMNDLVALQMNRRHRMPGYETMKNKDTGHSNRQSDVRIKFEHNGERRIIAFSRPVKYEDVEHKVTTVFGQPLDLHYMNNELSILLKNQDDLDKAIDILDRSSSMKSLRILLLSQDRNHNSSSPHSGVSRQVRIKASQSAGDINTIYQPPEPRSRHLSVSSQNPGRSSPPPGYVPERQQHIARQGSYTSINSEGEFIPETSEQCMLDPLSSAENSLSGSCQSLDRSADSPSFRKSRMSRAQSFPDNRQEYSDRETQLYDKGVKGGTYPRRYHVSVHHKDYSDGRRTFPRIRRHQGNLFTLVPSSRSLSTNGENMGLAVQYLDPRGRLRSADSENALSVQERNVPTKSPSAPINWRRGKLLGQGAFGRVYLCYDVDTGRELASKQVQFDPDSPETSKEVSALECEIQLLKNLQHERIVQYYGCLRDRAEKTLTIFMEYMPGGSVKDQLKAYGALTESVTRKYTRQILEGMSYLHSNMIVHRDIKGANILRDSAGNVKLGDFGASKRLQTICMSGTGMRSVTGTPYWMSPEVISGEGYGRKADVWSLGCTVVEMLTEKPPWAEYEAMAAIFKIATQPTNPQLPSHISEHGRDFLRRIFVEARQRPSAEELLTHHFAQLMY
T14 sequence (Q13153 whole entry): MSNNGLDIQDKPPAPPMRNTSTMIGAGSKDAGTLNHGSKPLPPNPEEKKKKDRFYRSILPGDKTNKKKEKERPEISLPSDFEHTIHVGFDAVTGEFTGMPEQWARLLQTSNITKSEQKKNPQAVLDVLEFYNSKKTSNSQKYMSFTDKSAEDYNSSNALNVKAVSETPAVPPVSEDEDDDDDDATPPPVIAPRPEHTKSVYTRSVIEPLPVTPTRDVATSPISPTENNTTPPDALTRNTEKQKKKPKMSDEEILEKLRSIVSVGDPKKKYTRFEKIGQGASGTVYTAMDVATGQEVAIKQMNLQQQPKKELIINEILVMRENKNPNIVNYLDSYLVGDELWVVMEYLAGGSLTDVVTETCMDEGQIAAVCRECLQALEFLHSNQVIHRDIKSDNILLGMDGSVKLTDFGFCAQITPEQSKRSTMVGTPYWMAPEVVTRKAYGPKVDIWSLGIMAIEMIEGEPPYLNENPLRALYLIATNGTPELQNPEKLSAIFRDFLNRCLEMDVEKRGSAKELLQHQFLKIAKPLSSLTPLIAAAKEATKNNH
T21 sequence (Q15418 418-675 limits assumed): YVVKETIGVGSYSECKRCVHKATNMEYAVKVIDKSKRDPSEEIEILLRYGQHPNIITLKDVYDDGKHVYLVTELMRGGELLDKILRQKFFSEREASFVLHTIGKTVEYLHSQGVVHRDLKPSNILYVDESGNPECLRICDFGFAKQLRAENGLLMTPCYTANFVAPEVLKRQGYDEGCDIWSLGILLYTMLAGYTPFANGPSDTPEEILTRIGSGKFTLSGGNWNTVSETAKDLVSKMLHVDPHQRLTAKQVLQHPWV
Sequence of TIE2 (Q02763 23-1124): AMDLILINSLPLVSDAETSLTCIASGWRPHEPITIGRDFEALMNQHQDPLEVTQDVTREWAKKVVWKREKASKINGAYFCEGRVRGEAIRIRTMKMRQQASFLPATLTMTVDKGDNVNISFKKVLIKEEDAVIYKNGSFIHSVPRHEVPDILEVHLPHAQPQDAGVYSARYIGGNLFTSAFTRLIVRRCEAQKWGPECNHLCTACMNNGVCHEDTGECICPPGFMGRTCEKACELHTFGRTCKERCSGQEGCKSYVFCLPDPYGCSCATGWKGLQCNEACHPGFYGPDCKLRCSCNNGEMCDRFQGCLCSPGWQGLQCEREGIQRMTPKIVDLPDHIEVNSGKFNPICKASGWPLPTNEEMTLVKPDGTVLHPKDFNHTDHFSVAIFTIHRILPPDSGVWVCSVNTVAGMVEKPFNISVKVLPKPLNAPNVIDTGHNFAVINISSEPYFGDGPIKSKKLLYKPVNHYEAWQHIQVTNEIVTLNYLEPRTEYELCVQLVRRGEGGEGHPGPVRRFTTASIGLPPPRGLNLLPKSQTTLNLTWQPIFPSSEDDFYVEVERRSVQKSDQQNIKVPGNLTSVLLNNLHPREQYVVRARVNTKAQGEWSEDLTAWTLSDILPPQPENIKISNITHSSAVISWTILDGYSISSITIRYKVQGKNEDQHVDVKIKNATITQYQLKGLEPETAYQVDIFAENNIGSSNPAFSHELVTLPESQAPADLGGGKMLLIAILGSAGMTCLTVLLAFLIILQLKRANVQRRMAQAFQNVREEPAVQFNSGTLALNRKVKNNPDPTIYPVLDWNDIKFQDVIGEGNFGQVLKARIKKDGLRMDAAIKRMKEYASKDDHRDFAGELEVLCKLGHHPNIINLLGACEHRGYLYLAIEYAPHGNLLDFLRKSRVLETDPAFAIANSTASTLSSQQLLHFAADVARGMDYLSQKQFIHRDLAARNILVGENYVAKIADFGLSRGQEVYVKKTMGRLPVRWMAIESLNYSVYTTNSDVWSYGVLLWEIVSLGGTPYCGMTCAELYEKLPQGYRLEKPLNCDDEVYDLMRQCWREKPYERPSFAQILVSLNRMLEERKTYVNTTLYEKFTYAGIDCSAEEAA
Sequence of ZAK (Q9NYL2 whole entry): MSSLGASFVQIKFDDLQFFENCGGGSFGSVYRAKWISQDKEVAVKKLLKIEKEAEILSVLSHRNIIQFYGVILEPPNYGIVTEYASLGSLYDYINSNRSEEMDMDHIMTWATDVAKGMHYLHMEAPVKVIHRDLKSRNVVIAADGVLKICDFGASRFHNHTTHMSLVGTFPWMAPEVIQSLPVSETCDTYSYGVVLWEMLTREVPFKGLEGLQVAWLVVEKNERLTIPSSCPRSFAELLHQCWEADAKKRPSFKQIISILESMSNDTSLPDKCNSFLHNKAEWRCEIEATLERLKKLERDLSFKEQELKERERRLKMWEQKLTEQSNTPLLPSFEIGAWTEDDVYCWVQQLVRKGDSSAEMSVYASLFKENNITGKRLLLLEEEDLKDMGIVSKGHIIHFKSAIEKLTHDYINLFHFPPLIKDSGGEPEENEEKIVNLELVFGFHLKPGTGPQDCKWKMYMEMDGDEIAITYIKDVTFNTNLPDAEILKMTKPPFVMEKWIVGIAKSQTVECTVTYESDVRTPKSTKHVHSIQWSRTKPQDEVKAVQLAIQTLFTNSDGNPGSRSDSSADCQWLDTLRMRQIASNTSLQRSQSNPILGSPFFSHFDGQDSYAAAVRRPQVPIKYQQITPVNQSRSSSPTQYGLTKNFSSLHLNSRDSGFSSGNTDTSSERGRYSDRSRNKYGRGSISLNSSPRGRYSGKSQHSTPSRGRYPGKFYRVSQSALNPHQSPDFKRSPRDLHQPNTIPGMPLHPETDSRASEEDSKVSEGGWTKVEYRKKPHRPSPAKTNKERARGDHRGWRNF
T26 sequence (P33981 whole entry): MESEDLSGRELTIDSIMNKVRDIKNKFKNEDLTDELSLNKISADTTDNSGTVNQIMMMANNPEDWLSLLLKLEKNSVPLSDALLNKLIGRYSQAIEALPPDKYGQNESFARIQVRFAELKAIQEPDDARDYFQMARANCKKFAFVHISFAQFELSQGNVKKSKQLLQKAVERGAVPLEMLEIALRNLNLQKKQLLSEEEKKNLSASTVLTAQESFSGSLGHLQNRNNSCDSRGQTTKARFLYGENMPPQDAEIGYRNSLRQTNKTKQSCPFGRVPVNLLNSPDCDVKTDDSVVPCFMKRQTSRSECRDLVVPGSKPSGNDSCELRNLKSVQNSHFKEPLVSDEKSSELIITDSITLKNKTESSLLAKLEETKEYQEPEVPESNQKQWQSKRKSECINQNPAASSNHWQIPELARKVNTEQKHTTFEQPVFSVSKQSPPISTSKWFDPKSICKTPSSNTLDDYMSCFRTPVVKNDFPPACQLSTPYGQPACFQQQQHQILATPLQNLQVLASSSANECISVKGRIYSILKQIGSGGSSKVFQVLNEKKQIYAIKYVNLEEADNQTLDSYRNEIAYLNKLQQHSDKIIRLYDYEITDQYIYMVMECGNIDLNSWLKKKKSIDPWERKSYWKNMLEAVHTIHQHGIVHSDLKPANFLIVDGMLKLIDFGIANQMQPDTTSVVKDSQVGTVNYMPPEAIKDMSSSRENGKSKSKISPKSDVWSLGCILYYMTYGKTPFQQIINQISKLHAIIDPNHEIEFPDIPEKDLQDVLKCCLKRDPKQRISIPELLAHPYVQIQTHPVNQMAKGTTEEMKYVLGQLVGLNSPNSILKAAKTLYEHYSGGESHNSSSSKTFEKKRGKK

## NCCCNc1nc2c(Br)c(Br)c(Br)c(Br)c2[nH]1 [Compound 11, N-(3-aminopropyl)-4,5,6,7-tetrabromo-1H-benzo[d]imidazol-2-amine]
[1]
  remaining binding at 1 µM: 100%
[2]
  remaining binding at 1 µM: 100%
[3]
  remaining binding at 1 µM: 100%
ANKK1
  remaining binding at 1 µM: 100%
BMPR1A
  remaining binding at 1 µM: 100%
BRAF
  remaining binding at 1 µM: 100%
BRSK1
  remaining binding at 1 µM: 100%
CDKL2
  remaining binding at 1 µM: 85%
DCAMKL3
  remaining binding at 1 µM: 100%
EPHA4
  remaining binding at 1 µM: 100%
EPHA8
  remaining binding at 1 µM: 86%
FLT3(D835H)
  remaining binding at 1 µM: 58%
GRK1
  remaining binding at 1 µM: 96%
HCK
  remaining binding at 1 µM: 98%
IRAK4
  % binding: 100%
MAP3K3
  remaining binding at 1 µM: 100%
MARK1
  remaining binding at 1 µM: 100%
PAK1
  remaining binding at 1 µM: 91%
PAK4
  remaining binding at 1 µM: 85%
PFPK5(P.falciparum)
  remaining binding at 1 µM: 100%
PIK3C2G
  remaining binding at 1 µM: 100%
PRKG2
  remaining binding at 1 µM: 7%
QSK
  % binding: 100%
RIPK5
  remaining binding at 1 µM: 100%
[4]
  remaining binding at 1 µM: 96%
SBK1
  remaining binding at 1 µM: 59%
SRPK2
  remaining binding at 1 µM: 100%
STK33
  remaining binding at 1 µM: 77%
TBK1
  remaining binding at 1 µM: 76%
TIE2
  remaining binding at 1 µM: 91%
TLK1
  remaining binding at 1 µM: 89%
TNK2
  remaining binding at 1 µM: 100%
TTK
  remaining binding at 1 µM: 100%
ZAK
  remaining binding at 1 µM: 98%
